Cc1ccc(S(N)(=O)=O)cc1
solubility (mole fraction) (in acetonitrile, 283.15 K): 0.078
solubility (mole fraction) (in acetonitrile, 288.15 K): 0.0848
solubility (mole fraction) (in acetonitrile, 293.15 K): 0.0955
solubility (mole fraction) (in acetonitrile, 298.15 K): 0.106
solubility (mole fraction) (in acetonitrile, 303.15 K): 0.118
solubility (mole fraction) (in acetonitrile, 308.15 K): 0.13
solubility (mole fraction) (in acetonitrile, 313.15 K): 0.143
solubility (mole fraction) (in acetonitrile, 318.15 K): 0.159
solubility (mole fraction) (in ethanol, 283.15 K): 0.0344
solubility (mole fraction) (in ethanol, 288.15 K): 0.0392
solubility (mole fraction) (in ethanol, 293.15 K): 0.0448
solubility (mole fraction) (in ethanol, 298.15 K): 0.0524
solubility (mole fraction) (in ethanol, 303.15 K): 0.0608
solubility (mole fraction) (in ethanol, 308.15 K): 0.0701
solubility (mole fraction) (in ethanol, 313.15 K): 0.0801
solubility (mole fraction) (in ethanol, 318.15 K): 0.0914
solubility (mole fraction) (in ethyl acetate, 283.15 K): 0.0728
solubility (mole fraction) (in ethyl acetate, 288.15 K): 0.0786
solubility (mole fraction) (in ethyl acetate, 293.15 K): 0.0859
solubility (mole fraction) (in ethyl acetate, 298.15 K): 0.0946
solubility (mole fraction) (in ethyl acetate, 303.15 K): 0.104
solubility (mole fraction) (in ethyl acetate, 308.15 K): 0.114
solubility (mole fraction) (in ethyl acetate, 313.15 K): 0.123
solubility (mole fraction) (in ethyl acetate, 318.15 K): 0.133
solubility (mole fraction) (in isopropanol, 283.15 K): 0.0203
solubility (mole fraction) (in isopropanol, 288.15 K): 0.0232
solubility (mole fraction) (in isopropanol, 293.15 K): 0.0267
solubility (mole fraction) (in isopropanol, 298.15 K): 0.0306
solubility (mole fraction) (in isopropanol, 303.15 K): 0.0347
solubility (mole fraction) (in isopropanol, 308.15 K): 0.0392
solubility (mole fraction) (in isopropanol, 313.15 K): 0.0445
solubility (mole fraction) (in isopropanol, 318.15 K): 0.0509
solubility (mole fraction) (in methanol, 283.15 K): 0.0441
solubility (mole fraction) (in methanol, 288.15 K): 0.0505
solubility (mole fraction) (in methanol, 293.15 K): 0.0569
solubility (mole fraction) (in methanol, 298.15 K): 0.0648
solubility (mole fraction) (in methanol, 303.15 K): 0.073
solubility (mole fraction) (in methanol, 308.15 K): 0.0827
solubility (mole fraction) (in methanol, 313.15 K): 0.0932
solubility (mole fraction) (in methanol, 318.15 K): 0.104
solubility (mole fraction) (in n-butanol, 283.15 K): 0.0242
solubility (mole fraction) (in n-butanol, 288.15 K): 0.028
solubility (mole fraction) (in n-butanol, 293.15 K): 0.0316
solubility (mole fraction) (in n-butanol, 298.15 K): 0.0358
solubility (mole fraction) (in n-butanol, 303.15 K): 0.0403
solubility (mole fraction) (in n-butanol, 308.15 K): 0.0452
solubility (mole fraction) (in n-butanol, 313.15 K): 0.0501
solubility (mole fraction) (in n-butanol, 318.15 K): 0.0565
solubility (mole fraction) (in n-propanol, 283.15 K): 0.0272
solubility (mole fraction) (in n-propanol, 288.15 K): 0.0313
solubility (mole fraction) (in n-propanol, 293.15 K): 0.0358
solubility (mole fraction) (in n-propanol, 298.15 K): 0.0415
solubility (mole fraction) (in n-propanol, 303.15 K): 0.047
solubility (mole fraction) (in n-propanol, 308.15 K): 0.0542
solubility (mole fraction) (in n-propanol, 313.15 K): 0.0611
solubility (mole fraction) (in n-propanol, 318.15 K): 0.0689

Cc1ccccc1S(N)(=O)=O
solubility (mole fraction) (in acetonitrile, 283.15 K): 0.0337
solubility (mole fraction) (in acetonitrile, 288.15 K): 0.0375
solubility (mole fraction) (in acetonitrile, 293.15 K): 0.0423
solubility (mole fraction) (in acetonitrile, 298.15 K): 0.0475
solubility (mole fraction) (in acetonitrile, 303.15 K): 0.0534
solubility (mole fraction) (in acetonitrile, 308.15 K): 0.0597
solubility (mole fraction) (in acetonitrile, 313.15 K): 0.0669
solubility (mole fraction) (in acetonitrile, 318.15 K): 0.0737
solubility (mole fraction) (in ethanol, 283.15 K): 0.0242
solubility (mole fraction) (in ethanol, 288.15 K): 0.0266
solubility (mole fraction) (in ethanol, 293.15 K): 0.0293
solubility (mole fraction) (in ethanol, 298.15 K): 0.0321
solubility (mole fraction) (in ethanol, 303.15 K): 0.035
solubility (mole fraction) (in ethanol, 308.15 K): 0.0384
solubility (mole fraction) (in ethanol, 313.15 K): 0.042
solubility (mole fraction) (in ethanol, 318.15 K): 0.0456
solubility (mole fraction) (in ethyl acetate, 283.15 K): 0.0497
solubility (mole fraction) (in ethyl acetate, 288.15 K): 0.053
solubility (mole fraction) (in ethyl acetate, 293.15 K): 0.0566
solubility (mole fraction) (in ethyl acetate, 298.15 K): 0.0604
solubility (mole fraction) (in ethyl acetate, 303.15 K): 0.0644
solubility (mole fraction) (in ethyl acetate, 308.15 K): 0.0687
solubility (mole fraction) (in ethyl acetate, 313.15 K): 0.0729
solubility (mole fraction) (in ethyl acetate, 318.15 K): 0.0775
solubility (mole fraction) (in isopropanol, 283.15 K): 0.0198
solubility (mole fraction) (in isopropanol, 288.15 K): 0.022
solubility (mole fraction) (in isopropanol, 293.15 K): 0.0246
solubility (mole fraction) (in isopropanol, 298.15 K): 0.0276
solubility (mole fraction) (in isopropanol, 303.15 K): 0.0305
solubility (mole fraction) (in isopropanol, 308.15 K): 0.0337
solubility (mole fraction) (in isopropanol, 313.15 K): 0.0374
solubility (mole fraction) (in isopropanol, 318.15 K): 0.0414
solubility (mole fraction) (in methanol, 283.15 K): 0.0277
solubility (mole fraction) (in methanol, 288.15 K): 0.0305
solubility (mole fraction) (in methanol, 293.15 K): 0.0341
solubility (mole fraction) (in methanol, 298.15 K): 0.0378
solubility (mole fraction) (in methanol, 303.15 K): 0.0425
solubility (mole fraction) (in methanol, 308.15 K): 0.0473
solubility (mole fraction) (in methanol, 313.15 K): 0.0526
solubility (mole fraction) (in methanol, 318.15 K): 0.0579
solubility (mole fraction) (in n-butanol, 283.15 K): 0.0209
solubility (mole fraction) (in n-butanol, 288.15 K): 0.0232
solubility (mole fraction) (in n-butanol, 293.15 K): 0.0257
solubility (mole fraction) (in n-butanol, 298.15 K): 0.0286
solubility (mole fraction) (in n-butanol, 303.15 K): 0.0316
solubility (mole fraction) (in n-butanol, 308.15 K): 0.0348
solubility (mole fraction) (in n-butanol, 313.15 K): 0.0382
solubility (mole fraction) (in n-butanol, 318.15 K): 0.0421
solubility (mole fraction) (in n-propanol, 283.15 K): 0.0226
solubility (mole fraction) (in n-propanol, 288.15 K): 0.0249
solubility (mole fraction) (in n-propanol, 293.15 K): 0.0274
solubility (mole fraction) (in n-propanol, 298.15 K): 0.0301
solubility (mole fraction) (in n-propanol, 303.15 K): 0.0331
solubility (mole fraction) (in n-propanol, 308.15 K): 0.0361
solubility (mole fraction) (in n-propanol, 313.15 K): 0.0394
solubility (mole fraction) (in n-propanol, 318.15 K): 0.0427
